Measured values from ChEMBL document CHEMBL1909046, “DrugMatrix in vitro pharmacology data”.

Legend:
[1] = target: Adenosine receptor A2a (Homo sapiens, UniProt P29274); assay: DRUGMATRIX: Adenosine A2A radioligand binding (ligand: […]); assay type: cell membranes, HEK293, Membrane; conditions: hek293; Not Active = under 50% inhibition at 10 µM
[2] = DRUGMATRIX: Phosphodiesterase PDE4 enzyme inhibition (substrate: [3H]cAMP + cAMP); conditions: u-937; Not Active = under 50% inhibition at 10 µM
[3] = DRUGMATRIX: GABAA, Muscimol, Central radioligand binding (ligand: [3H] Muscimol); assay type: cell membranes, Rattus norvegicus, Wistar, Brain, Membrane; conditions: Not Active = under 50% inhibition at 10 µM
[4] = target: T1, Polyunsaturated fatty acid lipoxygenase ALOX15 (Oryctolagus cuniculus, UniProt P12530); assay: biochemical; assay type: tissue-based, Reticulocytes; conditions: reticulocytes;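 further: inhibition of 15-lipoxygenase enzyme activity measured with linoleic acid as the substrate; in other assays of this panel Not Active means under 50% inhibition at 10 µM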
T1 sequence (P12530 whole entry): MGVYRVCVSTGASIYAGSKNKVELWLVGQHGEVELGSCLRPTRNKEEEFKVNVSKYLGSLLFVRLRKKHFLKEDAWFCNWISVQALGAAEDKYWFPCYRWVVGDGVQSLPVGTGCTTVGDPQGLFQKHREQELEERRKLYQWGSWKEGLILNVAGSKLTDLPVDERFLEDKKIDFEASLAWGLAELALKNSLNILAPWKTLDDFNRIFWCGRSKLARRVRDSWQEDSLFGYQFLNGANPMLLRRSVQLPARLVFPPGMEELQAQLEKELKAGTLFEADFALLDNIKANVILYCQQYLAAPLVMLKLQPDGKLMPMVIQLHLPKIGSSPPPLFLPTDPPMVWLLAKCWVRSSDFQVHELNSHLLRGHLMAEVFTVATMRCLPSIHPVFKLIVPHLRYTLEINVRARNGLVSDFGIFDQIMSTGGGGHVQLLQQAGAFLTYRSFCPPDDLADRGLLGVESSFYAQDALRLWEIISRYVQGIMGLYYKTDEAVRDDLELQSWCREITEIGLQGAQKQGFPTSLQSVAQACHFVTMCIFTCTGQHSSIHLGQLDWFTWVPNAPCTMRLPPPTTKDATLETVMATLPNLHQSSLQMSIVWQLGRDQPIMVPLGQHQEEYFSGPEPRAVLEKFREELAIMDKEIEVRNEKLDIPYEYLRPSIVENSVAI

[5] = DRUGMATRIX: GABAA, Chloride Channel, TBOB radioligand binding (ligand: [3H] TBOB); assay type: cell membranes, Rattus norvegicus, Wistar, Cerebral cortex, Membrane; conditions: Not Active = under 50% inhibition at 10 µM
[6] = target: Melanocortin receptor 3 (Homo sapiens, UniProt P41968); assay type: cell membranes, Membrane; conditions: hek293; further: in other assays of this panel Not Active means under 50% inhibition at 10 µM
Melanocortin receptor 3, sequence (P41968 whole entry): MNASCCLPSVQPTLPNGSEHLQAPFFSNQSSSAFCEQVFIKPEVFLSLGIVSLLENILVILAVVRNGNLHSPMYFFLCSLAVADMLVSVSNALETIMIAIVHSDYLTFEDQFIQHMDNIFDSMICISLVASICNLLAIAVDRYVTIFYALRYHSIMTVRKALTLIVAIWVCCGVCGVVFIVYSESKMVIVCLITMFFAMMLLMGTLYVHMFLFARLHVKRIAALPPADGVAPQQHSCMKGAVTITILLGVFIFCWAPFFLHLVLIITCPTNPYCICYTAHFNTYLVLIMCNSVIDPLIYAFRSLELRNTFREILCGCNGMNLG

Adenosine receptor A2a, sequence (P29274 whole entry): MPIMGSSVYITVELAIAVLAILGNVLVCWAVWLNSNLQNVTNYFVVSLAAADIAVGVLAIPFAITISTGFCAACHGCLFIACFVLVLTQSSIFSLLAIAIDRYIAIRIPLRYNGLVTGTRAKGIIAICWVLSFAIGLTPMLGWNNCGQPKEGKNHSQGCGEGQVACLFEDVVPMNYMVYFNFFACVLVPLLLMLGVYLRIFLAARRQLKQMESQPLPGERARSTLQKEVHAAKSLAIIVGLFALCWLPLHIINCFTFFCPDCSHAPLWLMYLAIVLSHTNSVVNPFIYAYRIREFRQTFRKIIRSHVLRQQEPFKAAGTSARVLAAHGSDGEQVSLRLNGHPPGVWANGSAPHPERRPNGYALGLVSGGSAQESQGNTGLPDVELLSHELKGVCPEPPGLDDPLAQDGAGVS

| Compound | IC50 [1] | IC50 [2] | Ki [2] | IC50 [3] | Ki [3] | IC50 [4] | IC50 [5] | Ki [5] | IC50 [6] | Ki [1] | Ki [4] | Ki [6] | IC50 ([6]; read-out: IC50) | Ki ([6]; read-out: Ki) |
| --- | --- | --- | --- | --- | --- | --- | --- | --- | --- | --- | --- | --- | --- | --- |
| C[C@@H]1O[C@@H](O[C@H]2C[C@@H](O)[C@]3(CO)[C@H]4[C@H](O)C[C@]5(C)[C@@H](C6=CC(=O)OC6)CC[C@]5(O)[C@@H]4CC[C@]3(O)C2)[C@H](O)[C@H](O)[C@H]1O [OUABAIN] | Not Active | Not Active | Not Active | Not Active | Not Active | Not Active | Not Active | Not Active | Not Active | – | – | – | – | – |
| NC(=O)N1c2ccccc2CC(=O)c2ccccc21 [OXCARBAZEPINE] | Not Active | Not Active | Not Active | Not Active | Not Active | Not Active | Not Active | Not Active | Not Active | – | – | – | – | – |
| COc1ccnc(C[S+]([O-])c2nc3ccc(OC(F)F)cc3[nH]2)c1OC (configuration not stated) [PANTOPRAZOLE] | Not Active | Not Active | Not Active | Not Active | Not Active | Not Active | Not Active | Not Active | Not Active | – | – | – | – | – |
| N=C(N)c1ccc(OCCCCCOc2ccc(C(=N)N)cc2)cc1 [PENTAMIDINE] | Not Active | Not Active | Not Active | Not Active | Not Active | Not Active | Not Active | Not Active | Not Active | – | – | – | – | – |
| NNCCc1ccccc1 [PHENELZINE] | Not Active | Not Active | Not Active | Not Active | Not Active | Not Active | Not Active | Not Active | Not Active | – | – | – | – | – |
| CCc1ccc(CCOc2ccc(CC3SC(=O)NC3=O)cc2)nc1 (configuration not stated) [PIOGLITAZONE] | Not Active | Not Active | Not Active | Not Active | Not Active | Not Active | Not Active | Not Active | Not Active | – | – | – | – | – |
| CCCNC(C)C(=O)Nc1ccccc1C (configuration not stated) [PRILOCAINE] | Not Active | Not Active | Not Active | Not Active | Not Active | Not Active | Not Active | Not Active | Not Active | – | – | – | – | – |
| CCN(CC)CCNC(=O)c1ccc(N)cc1 [PROCAINAMIDE] | Not Active | Not Active | Not Active | Not Active | Not Active | Not Active | Not Active | Not Active | Not Active | – | – | – | – | – |
| CCN(CC)CCCC(C)Nc1c2ccc(Cl)cc2nc2ccc(OC)cc12 (configuration not stated) [QUINACRINE] | Not Active | Not Active | Not Active | Not Active | Not Active | Not Active | Not Active | Not Active | Not Active | – | – | – | – | – |
| C[C@]12C=CC(=O)C=C1CC[C@H]1[C@@H]3C[C@@H](O)[C@](O)(C(=O)CO)[C@@]3(C)C[C@H](O)[C@@]12F [TRIAMCINOLONE] | Not Active | Not Active | Not Active | Not Active | Not Active | Not Active | Not Active | Not Active | Not Active | – | – | – | – | – |
| CC[C@]1(O)C[C@@H]2CN(CCc3c([nH]c4ccccc34)[C@@](C(=O)OC)(c3cc4c(cc3OC)N(C)[C@H]3[C@@](O)(C(N)=O)[C@H](O)[C@]5(CC)C=CCN6CC[C@]43[C@@H]65)C2)C1 [VINDESINE] | Not Active | Not Active | Not Active | Not Active | Not Active | Not Active | Not Active | Not Active | Not Active | – | – | – | – | – |
| CCN(C(C)=O)c1cccc(-c2ccnc3c(C#N)cnn23)c1 [ZALEPLON] | Not Active | Not Active | Not Active | Not Active | Not Active | Not Active | Not Active | Not Active | Not Active | – | – | – | – | – |
| COBALTOUS CHLORIDE | Not Active | Not Active | Not Active | Not Active | Not Active | Not Active | Not Active | Not Active | Not Active | Not Active | Not Active | Not Active | – | – |
| COLISTIN | Not Active | Not Active | Not Active | Not Active | Not Active | Not Active | Not Active | Not Active | – | Not Active | Not Active | – | 193 nM | 168 nM |
